Here are results for 1 molecule from patent US20230174523A1, “BENZENESULFONAMIDE DERIVATIVES AS TRAP1 MODULATORS AND USES THEREOF” (Amathus Therapeutics, Inc., priority 2020, published 2023).

This assay addresses T1, nanoLuc TRAP1 (Homo sapiens, UniProt Q12931).
T1 construct: expressed in transfected cells; host or cells: SHSY5Y cells, transient transfection with FuGENE HD
T1 sequence (Q12931 60-704): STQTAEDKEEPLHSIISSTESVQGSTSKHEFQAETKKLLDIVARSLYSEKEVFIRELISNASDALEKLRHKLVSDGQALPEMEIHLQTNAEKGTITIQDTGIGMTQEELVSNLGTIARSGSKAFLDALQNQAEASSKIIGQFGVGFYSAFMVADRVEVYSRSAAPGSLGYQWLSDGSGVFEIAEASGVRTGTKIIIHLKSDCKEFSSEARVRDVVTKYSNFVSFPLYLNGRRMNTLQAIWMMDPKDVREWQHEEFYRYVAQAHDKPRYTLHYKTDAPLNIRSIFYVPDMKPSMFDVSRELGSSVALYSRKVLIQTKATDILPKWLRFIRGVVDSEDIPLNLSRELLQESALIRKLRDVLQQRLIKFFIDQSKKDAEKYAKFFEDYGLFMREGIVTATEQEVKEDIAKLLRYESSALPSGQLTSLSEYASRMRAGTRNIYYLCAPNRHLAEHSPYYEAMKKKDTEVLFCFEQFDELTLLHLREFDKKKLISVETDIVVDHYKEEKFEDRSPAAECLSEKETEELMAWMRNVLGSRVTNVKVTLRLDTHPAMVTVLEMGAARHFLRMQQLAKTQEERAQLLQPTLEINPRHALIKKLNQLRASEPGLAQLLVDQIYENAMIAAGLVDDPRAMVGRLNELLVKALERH
Put plainly: In-cell target engagement assay (NanoBRET) in SHSY5Y cells. It counts as cell-based. Particulars: tracer probe-385, 1 μM; live SHSY5Y cells; FIG. 4. The method, then: In-cell target engagement assays were performed as described in Robers M. B. et al. (2019) Quantitative, Real-Time Measurements of Intracellular Target Engagement Using Energy Transfer. In: Ziegler S., Waldmann H. (eds) Systems Chemical Biology. Methods in Molecular Biology, vol 1888. Humana Press, New York, N.Y.; Machleidt et al., ACS Chem. Biol. 2015, 10, 8, 1797-1804; or Vasta et al., Cell Chemical Biology 25, 206-214, Feb. 15, 2018; or as described herein.
Below is a protocol for transient transfection of SHSY5Y cells with NanoLuc® fusions. • 1. Cultivate SHSY5Y cells appropriately prior to assay in MEM w NEAA supplemented with 10% FBS. • 2. Remove medium from cell flask via aspiration, trypsinize, and allow cells to dissociate from the flask. • 3. Neutralize trypsin using growth medium and pellet cells via centrifugation at 200 g for 5 minutes. • 4. Aspirate medium and re-suspend cells into a single cell suspension using complete cell culture medium. • 5. Adjust the cell density to 300K/mL in cell culture medium in a sterile, conical tube. • 6. Prepare lipid:DNA complexes as follows (this covers two assay plates, adjust numbers for more plates) • a. Prepare a 10 μg/mL solution of DNA in Opti-MEM without serum. This solution should contain the following ratios of carrier DNA and DNA encoding NanoLuc® fusion. • i. 5.0 μg/mL of Transfection Carrier DNA (pGEM) • ii. […]

As for `Cc1nn(C)c2sc(C(=O)Nc3ccc(F)c(S(=O)(=O)Nc4ccc(Cl)cc4)c3)cc12` [Compound 705], the “displacement of the nanoBRET tracer molecule from nanoLuc TRAP1” value is listed as “displacing the nanoBRET tracer molecule”.
